Experimental data taken from patent publication US8609690B2, “Aryl- and heteroarylcarbonyl derivatives of substituted nortropanes, medicaments containing such compounds and their use” (Boehringer Ingelheim International GmbH, priority 2008, dated 2013).

target: T1, 11β-HSD 1 (Homo sapiens, UniProt P28845); assay: In vitro inhibition of 11β-HSD 1, HTRF detection of cortisol generated by human liver microsomes; assay type: biochemical; settings: 1 μM test compound, 100% indicates no inhibition, zero or below zero indicates complete inhibition (relative to carbenoxolone)
T1 construct: detecting cortisol generated from cortisterone by human liver microsomes; from tissue; host or cells: human liver microsomes
T1 sequence (P28845 whole entry): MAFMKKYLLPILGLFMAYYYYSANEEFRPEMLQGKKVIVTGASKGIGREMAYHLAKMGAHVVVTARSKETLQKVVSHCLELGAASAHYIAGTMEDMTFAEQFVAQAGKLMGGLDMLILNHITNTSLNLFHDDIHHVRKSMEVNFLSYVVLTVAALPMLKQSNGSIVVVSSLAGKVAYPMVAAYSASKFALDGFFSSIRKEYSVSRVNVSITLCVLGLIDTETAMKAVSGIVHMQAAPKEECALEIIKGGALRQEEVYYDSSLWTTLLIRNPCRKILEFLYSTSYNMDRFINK
How it was run: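 Human liver microsomes with test compound were incubated 1 h at 37 °C in Tris buffer, pH 6.0, with 200 μM NADPH and 80 nM cortisone. Cortisol formed was detected by competitive HTRF immunoassay (665/615 nm ratio) and calibrated against a cortisol standard curve. Values are activities at 1 μM compound relative to carbenoxolone, where 100% indicates no inhibition.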

Molecule	Inhibitory activity on 11β-HSD 1, % CTL [% CTL]
CS(=O)(=O)c1cccc(C(=O)N2[C@@H]3CC[C@H]2C[C@@H](c2ccc(F)cc2)C3)c1 [Example 67, Endo-[3-(4-Fluoro-phenyl)-8-aza-bicyclo[3.2.1]oct-8-yl]-(3-methanesulfonyl-phenyl)-methanone]	85
Cc1cc(C(F)F)n2ncc(C(=O)N3[C@@H]4CC[C@H]3C[C@@H](c3ccc(F)cc3)C4)c2n1 [Example 4, endo-(7-Difluoromethyl-5-methyl-pyrazolo[1,5-a]pyrimidin-3-yl)-[3-(4-fluoro-phenyl)-8-aza-bicyclo[3.2.1]oct-8-yl]-methanone]	87
COc1ccc(C(=O)N2[C@@H]3CC[C@H]2C[C@@H](c2ccc(F)cc2)C3)cc1Cl [Example 165, endo-(3-Chloro-4-methoxy-phenyl)-[3-(4-fluoro-phenyl)-8-aza-bicyclo[3.2.1]oct-8-yl]-methanone]	2
Cn1ccc2ccc(C(=O)N3[C@@H]4CC[C@H]3C[C@@H](c3ccc(F)cc3)C4)cc21 [Example 53, endo-[3-(4-Fluoro-phenyl)-8-aza-bicyclo[3.2.1]oct-8-yl]-(1-methyl-1H-indol-6-yl)-methanone]	−55
Cc1cc(C(=O)N2[C@@H]3CC[C@H]2C[C@@H](c2ccc(F)cc2)C3)cc(C)c1O [Example 164, endo-[3-(4-Fluoro-phenyl)-8-aza-bicyclo[3.2.1]oct-8-yl]-(4-hydroxy-3,5-dimethyl-phenyl)-methanone]	−29
O=C(c1cccs1)N1[C@@H]2CC[C@H]1C[C@@H](c1ccc(F)cc1)C2 [Example 7, endo-[3-(4-Fluoro-phenyl)-8-aza-bicyclo[3.2.1]oct-8-yl]-thiophen-2-yl-methanone]	68
NC(=O)c1ccc(C(=O)N2[C@@H]3CC[C@H]2C[C@@H](c2ccc(F)cc2)C3)c(F)c1 [Example 36, endo-3-Fluoro-4-[3-(4-fluoro-phenyl)-8-aza-bicyclo[3.2.1]octane-8-carbonyl]-benzamide]	−28
O=C(c1ccc(-c2cnco2)cc1)N1[C@@H]2CC[C@H]1C[C@@H](c1ccc(F)cc1)C2 [Example 87, endo-[3-(4-Fluoro-phenyl)-8-aza-bicyclo[3.2.1]oct-8-yl]-(4-oxazol-5-yl-phenyl)-methanone]	−2
COc1ccc([C@@H]2C[C@H]3CC[C@@H](C2)N3C(=O)c2ccc3c(c2)OCCO3)cc1 [Example 135, exo-(2,3-Dihydro-benzo[1,4]dioxin-6-yl)-[3-(4-methoxy-phenyl)-8-aza-bicyclo[3.2.1]oct-8-yl]-methanone]	−35
O=C(c1ccc2c(c1)OCCO2)N1[C@@H]2CC[C@H]1C[C@@H](c1ccc(O)cc1)C2 [Example 142, endo-(2,3-Dihydro-benzo[1,4]dioxin-6-yl)-[3-(4-hydroxy-phenyl)-8-aza-bicyclo[3.2.1]oct-8-yl]-methanone]	31
Cc1[nH]c2ccc(C(=O)N3[C@@H]4CC[C@H]3C[C@@H](c3ccc(F)cc3)C4)cc2c1C [Example 132, endo-(2,3-Dimethyl-1H-indol-5-yl)-[3-(4-fluoro-phenyl)-8-aza-bicyclo[3.2.1]oct-8-yl]-methanone]	−36
CC(C)c1ccc([C@H]2C[C@H]3CC[C@@H](C2)N3C(=O)c2ccc3c(c2)OCCO3)cc1 [Example 136, endo-(2,3-Dihydro-benzo[1,4]dioxin-6-yl)-[3-(4-isopropyl-phenyl)-8-aza-bicyclo[3.2.1]oct-8-yl]-methanone]	17
O=C(c1ccc2c(c1)OCCO2)N1[C@@H]2CC[C@H]1C[C@@H](c1ccc(Br)cc1)C2 [Example 155, endo-[3-(4-Bromo-phenyl)-8-aza-icyclo[3.2.1]oct-8-yl]-(2,3-dihydro-benzo[1,4]dioxin-6-yl)-methanone]	−17
O=C(c1cccc(CO)c1)N1[C@@H]2CC[C@H]1C[C@@H](c1ccc(F)cc1)C2 [Example 82, endo-[3-(4-Fluoro-phenyl)-8-aza-bicyclo[3.2.1]oct-8-yl]-(3-hydroxymethyl-phenyl)-methanone]	5
O=C(c1ccc2c(c1)OCCO2)N1C2CCC1CC(c1ccc(Cl)cc1)C2 (centres unmarked) [Example 151, [3-(4-Chloro-phenyl)-8-aza-bicyclo[3.2.1]oct-8-yl]-(2,3-dihydro-benzo[1,4]dioxin-6-yl)-methanone]	−44
O=C1CCCN1c1ccc(C(=O)N2[C@@H]3CC[C@H]2C[C@@H](c2ccc(F)cc2)C3)cc1 [Example 65, endo-1-{4-[3-(4-Fluoro-phenyl)-8-aza-bicyclo[3.2.1]octane-8-carbonyl]-phenyl}-pyrrolidin-2-one]	33
Cc1cc(=O)n2ncc(C(=O)N3[C@@H]4CC[C@H]3C[C@@H](c3ccc(F)cc3)C4)c2[nH]1 [Example 8, endo-3-[3-(4-Fluoro-phenyl)-8-aza-bicyclo[3.2.1]octane-8-carbonyl]-5-methyl-4H-pyrazolo[1,5-a]pyrimidin-7-one]	87
COc1ccc(C(=O)N2[C@@H]3CC[C@H]2C[C@@H](c2ccc(F)cc2)C3)cc1 [Example 108, endo-[3-(4-Fluoro-phenyl)-8-aza-bicyclo[3.2.1]oct-8-yl]-(4-methoxy-phenyl)-methanone]	1
NS(=O)(=O)c1ccc(C(=O)N2[C@@H]3CC[C@H]2C[C@@H](c2ccc(F)cc2)C3)cc1 [Example 119, endo-4-[3-(4-Fluoro-phenyl)-8-aza-bicyclo[3.2.1]octane-8-carbonyl]-benzenesulfonamide]	95
CC(=O)c1cccc(C(=O)N2[C@@H]3CC[C@H]2C[C@@H](c2ccc(F)cc2)C3)c1 [Example 124, endo-1-{3-[3-(4-Fluoro-phenyl)-8-aza-bicyclo[3.2.1]octane-8-carbonyl]-phenyl}-ethanone]	59
endo-[3-(3,4-Difluoro-phenyl)-8-aza-bicyclo[3.2.1]oct-8-yl]-(2,3-dihydro-benzo[1,4]dioxin-6-yl)-methanone [Example 137]	16
O=C(c1cnn2cccnc12)N1[C@@H]2CC[C@H]1C[C@@H](c1ccc(F)cc1)C2 [Example 35, endo-[3-(4-Fluoro-phenyl)-8-aza-bicyclo[3.2.1]oct-8-yl]-pyrazolo[1,5-a]pyrimidin-3-yl-methanone]	62

same assay, conditions: 1 μM test compound, 100% indicates no inhibition, zero or below zero indicates complete inhibition (relative to carbenoxolone), 1 µM

Molecule	Inhibitory activity on 11β-HSD 1, % CTL [% CTL]
NC(=O)c1ccc(C(=O)N2[C@@H]3CC[C@H]2C[C@@H](c2ccc(F)cc2)C3)cc1 [Example 81, endo-4-[3-(4-Fluoro-phenyl)-8-aza-bicyclo[3.2.1]octane-8-carbonyl]-benzamide]	−9
